Results published in ChEMBL document CHEMBL1201861, “Genomics of Drug Sensitity in Cancer screening data, Wellcome Trust Sanger Institute”.

How the values were obtained:
KYSE-510 = assay: cells; assay type: functional, cell-based; conditions: Homo sapiens;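 note: cell viability readout used to measure how strongly growth of the cell line is suppressed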
Description: SANGER: Inhibition of human KYSE-510 cell growth in a cell viability assay.

BXPC-3 = assay: cells; assay type: functional, cell-based; conditions: Homo sapiens;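 note: growth inhibition of human BxPC-3 cells, read out by a cell viability assay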
Description: SANGER: Inhibition of human BxPC-3 cell growth in a cell viability assay.

OVCAR-3 = assay: cells; assay type: functional, cell-based; conditions: Homo sapiens;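 note: growth inhibition of human OVCAR-3 cells, determined by a cell viability assay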
Description: SANGER: Inhibition of human OVCAR-3 cell growth in a cell viability assay.

A204 = assay: cells; assay type: functional, cell-based; conditions: Homo sapiens;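 note: growth inhibition of human A204 cells, read out with a cell viability assay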
Description: SANGER: Inhibition of human A204 cell growth in a cell viability assay.

SCC-25 = assay: cells; assay type: functional, cell-based; conditions: Homo sapiens;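 note: growth inhibition of SCC-25 cells, measured with a cell viability assay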
Description: SANGER: Inhibition of human SCC-25 cell growth in a cell viability assay.

LK-2 = assay: cells; assay type: functional, cell-based; conditions: Homo sapiens;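 note: growth inhibition of LK-2 cells, read out with a viability assay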
Description: SANGER: Inhibition of human LK-2 cell growth in a cell viability assay.

COLO-741 = assay: cells; assay type: functional, cell-based; conditions: Homo sapiens
Description: SANGER: Inhibition of human COLO-741 cell growth in a cell viability assay.

SK-HEP1 = assay: cells; assay type: functional, cell-based, SK-HEP-1; conditions: Homo sapiens;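 note: cell viability readout used to quantify reduction in proliferation of human SK-HEP-1 cells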
Description: SANGER: Inhibition of human SK-HEP-1 cell growth in a cell viability assay.

T98G = assay: cells; assay type: functional, cell-based; conditions: Homo sapiens;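 note: growth inhibition of T98G cells, read out by a cell viability assay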
Description: SANGER: Inhibition of human T98G cell growth in a cell viability assay.

ABC-1 = assay: cells; assay type: functional, cell-based; conditions: Homo sapiens;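 note: growth inhibition of human ABC-1 cells, read out by a cell viability assay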
Description: SANGER: Inhibition of human ABC-1 cell growth in a cell viability assay.

NCI-H1792 = assay: cells; assay type: functional, cell-based; conditions: Homo sapiens;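 note: growth inhibition of human NCI-H1792 cells, read out as cell viability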
Description: SANGER: Inhibition of human NCI-H1792 cell growth in a cell viability assay.

FaDu = assay: cells; assay type: functional, cell-based; conditions: Homo sapiens;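 note: cell viability readout of growth inhibition in FaDu cells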
Description: SANGER: Inhibition of human FADU cell growth in a cell viability assay.

A 172 = assay: cells; assay type: functional, cell-based; conditions: Homo sapiens;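 note: growth inhibition of A172 cells, measured with a cell viability readout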
Description: SANGER: Inhibition of human A172 cell growth in a cell viability assay.

J82 = assay: cells; assay type: functional, cell-based; conditions: Homo sapiens;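 note: growth inhibition of J82 cells, read out with a cell viability assay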
Description: SANGER: Inhibition of human J82 cell growth in a cell viability assay.

NCI-H2347 = assay: cells; assay type: functional, cell-based; conditions: Homo sapiens;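 note: growth inhibition of the cell line, read out with a cell viability assay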
Description: SANGER: Inhibition of human NCI-H2347 cell growth in a cell viability assay.

KP-4 = assay: cells; assay type: functional, cell-based; conditions: Homo sapiens;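 note: human KP-4 cells, with growth inhibition read out through a cell viability assay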
Description: SANGER: Inhibition of human KP-4 cell growth in a cell viability assay.

CAKI-1 = assay: cells; assay type: functional, cell-based; conditions: Homo sapiens;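 note: growth inhibition of CAKI-1 cells, measured by a cell viability assay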
Description: SANGER: Inhibition of human CAKI-1 cell growth in a cell viability assay.

NB7 = assay: cells; assay type: functional, cell-based, Homo sapiens; conditions: Homo sapiens, NB7;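 note: growth inhibition of NB7 cells, read out with a cell viability assay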
Description: SANGER: Inhibition of human NB7 cell growth in a cell viability assay.

Calu-3 = assay: cells; assay type: functional, cell-based; conditions: Homo sapiens;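 note: growth inhibition of human Calu-3 cells, determined with a cell viability assay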
Description: SANGER: Inhibition of human Calu-3 cell growth in a cell viability assay.

KYSE-180 = assay: cells; assay type: functional, cell-based; conditions: Homo sapiens;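 note: growth inhibition of KYSE-180 cells, read out with a cell viability assay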
Description: SANGER: Inhibition of human KYSE-180 cell growth in a cell viability assay.

HuP-T3 = assay: cells; assay type: functional, cell-based; conditions: Homo sapiens;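 note: HuP-T3 cell growth inhibition, read out with a cell viability assay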
Description: SANGER: Inhibition of human HuP-T3 cell growth in a cell viability assay.

UMUC3 = assay: cells; assay type: functional, cell-based; conditions: Homo sapiens;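 note: growth inhibition of human UM-UC-3 cells, read out with a cell viability assay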
Description: SANGER: Inhibition of human UM-UC-3 cell growth in a cell viability assay.

COLO-792 = assay: cells; assay type: functional, cell-based; conditions: Homo sapiens
Description: SANGER: Inhibition of human COLO-792 cell growth in a cell viability assay.

COLO-679 = assay: cells; assay type: functional, cell-based; conditions: Homo sapiens
Description: SANGER: Inhibition of human COLO-679 cell growth in a cell viability assay.

YAPC = assay: cells; assay type: functional, cell-based; conditions: Homo sapiens;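 note: growth inhibition of YAPC cells, measured with a cell viability assay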
Description: SANGER: Inhibition of human YAPC cell growth in a cell viability assay.

HuO-3N1 = assay: cells; assay type: functional, cell-based; conditions: Homo sapiens;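 note: cell viability readout used to measure how strongly compounds suppress proliferation of human HuO-3N1 cells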
Description: SANGER: Inhibition of human HuO-3N1 cell growth in a cell viability assay.

GMS-10 = assay: cells; assay type: functional, cell-based; conditions: Homo sapiens;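 note: growth inhibition of GMS-10 cells, read out as cell viability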
Description: SANGER: Inhibition of human GMS-10 cell growth in a cell viability assay.

CAL-51 = assay: cells; assay type: functional, cell-based; conditions: Homo sapiens;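 note: human CAL-51 cell line, growth inhibition read out via a cell viability assay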
Description: SANGER: Inhibition of human CAL-51 cell growth in a cell viability assay.

NCI-H2030 = assay: cells; assay type: functional, cell-based; conditions: Homo sapiens;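 note: growth inhibition of human NCI-H2030 cells, read out by a cell viability assay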
Description: SANGER: Inhibition of human NCI-H2030 cell growth in a cell viability assay.

LoVo = assay: cells; assay type: functional, cell-based; conditions: Homo sapiens;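 note: growth inhibition of human LoVo cells, read out with a cell viability assay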
Description: SANGER: Inhibition of human LoVo cell growth in a cell viability assay.

A2058 = assay: cells; assay type: functional, cell-based; conditions: Homo sapiens;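 note: reduction of A2058 cell growth, read out with a viability assay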
Description: SANGER: Inhibition of human A2058 cell growth in a cell viability assay.

SAOS-2 = assay: cells; assay type: functional, cell-based; conditions: Homo sapiens;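 note: growth inhibition of human Saos-2 cells determined by a cell viability assay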
Description: SANGER: Inhibition of human Saos-2 cell growth in a cell viability assay.

ACHN = assay: cells; assay type: functional, cell-based; conditions: Homo sapiens;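 note: cell viability read-out used to gauge how strongly growth of human ACHN cells is suppressed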
Description: SANGER: Inhibition of human ACHN cell growth in a cell viability assay.

HOP-92 = assay: cells; assay type: functional, cell-based; conditions: Homo sapiens;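 note: cell viability readout, with IC50 reflecting inhibition of HOP-92 cell growth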
Description: SANGER: Inhibition of human HOP-92 cell growth in a cell viability assay.

HCC70 = assay: cells; assay type: functional, cell-based; conditions: Homo sapiens;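 note: cell viability assay measuring how strongly the compound suppresses proliferation of HCC70 cells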
Description: SANGER: Inhibition of human HCC70 cell growth in a cell viability assay.

Ca-Ski = assay: cells; assay type: functional, cell-based; conditions: Homo sapiens;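 note: cell viability assay measuring inhibition of Ca-Ski cell growth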
Description: SANGER: Inhibition of human Ca-Ski cell growth in a cell viability assay.

NCI-H2405 = assay: cells; assay type: functional, cell-based; conditions: Homo sapiens;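 note: growth inhibition of the human cell line, read out with a cell viability assay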
Description: SANGER: Inhibition of human NCI-H2405 cell growth in a cell viability assay.

HT-29 = assay: cells; assay type: functional, cell-based; conditions: Homo sapiens;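 note: growth inhibition of human HT-29 cells, read out by a cell viability assay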
Description: SANGER: Inhibition of human HT-29 cell growth in a cell viability assay.

EFM-19 = assay: cells; assay type: functional, cell-based; conditions: Homo sapiens;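 note: growth inhibition of human EFM-19 cells, measured in a cell viability assay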
Description: SANGER: Inhibition of human EFM-19 cell growth in a cell viability assay.

NCI-H441 = assay: cells; assay type: functional, cell-based; conditions: Homo sapiens;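 note: growth inhibition of NCI-H441 cells, read out with a cell viability assay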
Description: SANGER: Inhibition of human NCI-H441 cell growth in a cell viability assay.

M14 = assay: cells; assay type: functional, cell-based; conditions: Homo sapiens;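 note: growth inhibition of M14 cells, read out with a cell viability assay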
Description: SANGER: Inhibition of human M14 cell growth in a cell viability assay.

HCC1954 = assay: cells; assay type: functional, cell-based; conditions: Homo sapiens;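 note: growth inhibition of human HCC1954 cells, read out with a cell viability assay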
Description: SANGER: Inhibition of human HCC1954 cell growth in a cell viability assay.

RPMI 8402 = assay: SANGER: Inhibition of human RPMI-8402 cell growth in a cell viability assay.; assay type: functional, cell-based; conditions: Homo sapiens, RPMI 8402
DG-75 = assay: cells; assay type: functional, cell-based, Homo sapiens; conditions: Homo sapiens, DG-75;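 note: growth inhibition of DG-75 cells, read out with a cell viability assay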
Description: SANGER: Inhibition of human DG-75 cell growth in a cell viability assay.

TALL-1 = assay: cells; assay type: functional, cell-based, Homo sapiens; conditions: Homo sapiens, TALL-1;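 note: growth inhibition of cultured human TALL-1 cells, read out by a cell viability assay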
Description: SANGER: Inhibition of human TALL-1 cell growth in a cell viability assay.

SCC-3 = assay: cells; assay type: functional, cell-based, Homo sapiens; conditions: Homo sapiens, SCC-3;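 note: cell viability assay measuring inhibition of SCC-3 cell growth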
Description: SANGER: Inhibition of human SCC-3 cell growth in a cell viability assay.

LB647-SCLC = assay: cells; assay type: functional, cell-based, Homo sapiens; conditions: Homo sapiens, LB647-SCLC;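 note: cell growth inhibition, read out by a viability assay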
Description: SANGER: Inhibition of human LB647-SCLC cell growth in a cell viability assay.

MONO-MAC-6 = assay: cells; assay type: functional, cell-based, Homo sapiens; conditions: Homo sapiens, MONO-MAC-6;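 note: cell viability assay measuring growth inhibition of human MONO-MAC-6 cells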
Description: SANGER: Inhibition of human MONO-MAC-6 cell growth in a cell viability assay.

RL = assay: cells; assay type: functional, cell-based, Homo sapiens; conditions: Homo sapiens, RL
Description: SANGER: Inhibition of human RL cell growth in a cell viability assay.

SR = assay: cells; assay type: functional, cell-based, Homo sapiens; conditions: Homo sapiens, SR
Description: SANGER: Inhibition of human SR cell growth in a cell viability assay.

SIMA = assay: cells; assay type: functional, cell-based, Homo sapiens; conditions: Homo sapiens, SIMA;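 note: growth inhibition of SIMA cells, measured with a cell viability readout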
Description: SANGER: Inhibition of human SIMA cell growth in a cell viability assay.

MDA-MB-134-VI = assay: cells; assay type: functional, cell-based, Homo sapiens; conditions: Homo sapiens, MDA-MB-134-VI
Description: SANGER: Inhibition of human MDA-MB-134-VI cell growth in a cell viability assay.

CP66-MEL = assay: cells; assay type: functional, cell-based; conditions: Homo sapiens;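 note: growth inhibition of CP66-MEL cells determined in a cell viability assay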
Description: SANGER: Inhibition of human CP66-MEL cell growth in a cell viability assay.

KMS-12-PE = assay: cells; assay type: functional, cell-based, Homo sapiens; conditions: Homo sapiens, KMS-12-PE;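 note: growth inhibition of human KMS-12-PE cells, measured with a cell viability assay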
Description: SANGER: Inhibition of human KMS-12-PE cell growth in a cell viability assay.

CMK = assay: cells; assay type: functional, cell-based, Homo sapiens; conditions: Homo sapiens, CMK;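 note: growth inhibition of CMK cells, read out as cell viability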
Description: SANGER: Inhibition of human CMK cell growth in a cell viability assay.

NCI-H1963 = assay: cells; assay type: functional, cell-based, Homo sapiens; conditions: Homo sapiens, NCI-H1963;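 note: cell growth inhibition of the human line, determined with a cell viability assay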
Description: SANGER: Inhibition of human NCI-H1963 cell growth in a cell viability assay.

MDA-MB-415 = assay: cells; assay type: functional, cell-based; conditions: Homo sapiens

With O=C1NC(=O)c2c1c(-c1ccccc1Cl)cc1[nH]c3ccc(O)cc3c21 the IC50 (KYSE-510) was over 2000 nM, the IC50 (BXPC-3) was over 2000 nM and the IC50 (OVCAR-3) was over 2000 nM. For the same compound, the IC50 (A204) was over 2000 nM, the IC50 (SCC-25) was over 2000 nM and the IC50 (LK-2) was over 2000 nM. For the same compound, the IC50 (COLO-741) was over 2000 nM, the IC50 (SK-HEP1) was over 2000 nM and the IC50 (T98G) was over 2000 nM. For the same compound, the IC50 (ABC-1) was over 2000 nM, the IC50 (NCI-H1792) was over 2000 nM and the IC50 (FaDu) was over 2000 nM. It also gave an IC50 (A 172) of over 2000 nM, an IC50 (J82) of over 2000 nM and an IC50 (NCI-H2347) of over 2000 nM. It also gave an IC50 (KP-4) of over 2000 nM, an IC50 (CAKI-1) of over 2000 nM and an IC50 (NB7) of over 2000 nM. It also gave an IC50 (Calu-3) of over 2000 nM, an IC50 (KYSE-180) of over 2000 nM and an IC50 (HuP-T3) of over 2000 nM. For the same compound, the IC50 (UMUC3) was over 2000 nM, the IC50 (COLO-792) was over 2000 nM and the IC50 (COLO-679) was over 2000 nM. It also gave an IC50 (YAPC) of over 2000 nM, an IC50 (HuO-3N1) of over 2000 nM and an IC50 (GMS-10) of over 2000 nM. It also gave an IC50 (CAL-51) of over 2000 nM, an IC50 (NCI-H2030) of 1290 nM and an IC50 (LoVo) of over 2000 nM. It also gave an IC50 (A2058) of over 2000 nM, an IC50 (SAOS-2) of over 2000 nM and an IC50 (ACHN) of 542 nM. It also gave an IC50 (HOP-92) of 1000 nM, an IC50 (HCC70) of over 2000 nM and an IC50 (Ca-Ski) of over 2000 nM. The IC50 (NCI-H2405) was over 2000 nM, the IC50 (HT-29) was over 2000 nM and the IC50 (EFM-19) was over 2000 nM. It also gave an IC50 (NCI-H441) of over 2000 nM, an IC50 (M14) of 1690 nM and an IC50 (HCC1954) of over 2000 nM.

Nc1ccccc1NC(=O)c1ccc(CNC(=O)OCc2cccnc2)cc1 [ENTINOSTAT] was tested, and the IC50 (RPMI 8402) was 387 nM, the IC50 (DG-75) was 2270 nM and the IC50 (TALL-1) was over 5000 nM. It also gave an IC50 (SCC-3) of 61 nM, an IC50 (LB647-SCLC) of 367 nM and an IC50 (MONO-MAC-6) of 388 nM. It also gave an IC50 (RL) of over 5000 nM, an IC50 (SR) of 343 nM and an IC50 (NB7) of over 5000 nM. It also gave an IC50 (SIMA) of over 5000 nM, an IC50 (MDA-MB-134-VI) of 1290 nM and an IC50 (CP66-MEL) of 2480 nM. For the same compound, the IC50 (KMS-12-PE) was over 5000 nM, the IC50 (CMK) was 357 nM and the IC50 (NCI-H1963) was 116 nM.

For CN(C)CCOc1ccc(-c2nc(-c3ccncc3)c(-c3ccc4c(c3)CC/C4=N\O)[nH]2)cc1 [SB590885], the IC50 (KYSE-510) was over 5000 nM, the IC50 (BXPC-3) was over 5000 nM and the IC50 (OVCAR-3) was over 5000 nM. The IC50 (A204) was over 5000 nM, the IC50 (SCC-25) was over 5000 nM and the IC50 (LK-2) was over 5000 nM. For the same compound, the IC50 (COLO-741) was over 5000 nM, the IC50 (SK-HEP1) was over 5000 nM and the IC50 (T98G) was over 5000 nM. For the same compound, the IC50 (MDA-MB-415) was over 5000 nM, the IC50 (ABC-1) was over 5000 nM and the IC50 (NCI-H1792) was over 5000 nM. It also gave an IC50 (FaDu) of over 5000 nM, an IC50 (NCI-H2347) of over 5000 nM and an IC50 (CAKI-1) of over 5000 nM. It also gave an IC50 (NB7) of over 5000 nM, an IC50 (Calu-3) of over 5000 nM and an IC50 (KYSE-180) of over 5000 nM. The IC50 (HuP-T3) was over 5000 nM, the IC50 (COLO-792) was over 5000 nM and the IC50 (COLO-679) was 386 nM. For the same compound, the IC50 (YAPC) was over 5000 nM, the IC50 (HuO-3N1) was over 5000 nM and the IC50 (GMS-10) was over 5000 nM. The IC50 (CAL-51) was over 5000 nM, the IC50 (NCI-H2030) was over 5000 nM and the IC50 (LoVo) was over 5000 nM. For the same compound, the IC50 (A2058) was over 5000 nM, the IC50 (SAOS-2) was over 5000 nM and the IC50 (HOP-92) was 1110 nM. The IC50 (HCC70) was over 5000 nM, the IC50 (Ca-Ski) was over 5000 nM and the IC50 (NCI-H2405) was over 5000 nM. For the same compound, the IC50 (HT-29) was over 5000 nM, the IC50 (EFM-19) was over 5000 nM and the IC50 (NCI-H441) was over 5000 nM. For the same compound, the IC50 (M14) was 80.8 nM and the IC50 (HCC1954) was over 5000 nM.

CS(=O)(=O)N1CCN(Cc2cc3nc(-c4cccc5[nH]ncc45)nc(N4CCOCC4)c3s2)CC1 [PICTILISIB] showed an IC50 (KYSE-510) of over 4000 nM, an IC50 (BXPC-3) of over 4000 nM and an IC50 (OVCAR-3) of over 4000 nM. The IC50 (A204) was 522 nM, the IC50 (SCC-25) was 914 nM and the IC50 (LK-2) was over 4000 nM. It also gave an IC50 (COLO-741) of over 4000 nM, an IC50 (SK-HEP1) of over 4000 nM and an IC50 (T98G) of 1990 nM. It also gave an IC50 (MDA-MB-415) of 1490 nM, an IC50 (ABC-1) of over 4000 nM and an IC50 (NCI-H1792) of over 4000 nM. It also gave an IC50 (FaDu) of over 4000 nM, an IC50 (J82) of over 4000 nM and an IC50 (NCI-H2347) of over 4000 nM. It also gave an IC50 (KP-4) of over 4000 nM, an IC50 (CAKI-1) of over 4000 nM and an IC50 (NB7) of 390 nM. The IC50 (Calu-3) was 3710 nM, the IC50 (KYSE-180) was over 4000 nM and the IC50 (HuP-T3) was over 4000 nM. For the same compound, the IC50 (UMUC3) was over 4000 nM, the IC50 (COLO-792) was over 4000 nM and the IC50 (COLO-679) was over 4000 nM. The IC50 (YAPC) was over 4000 nM, the IC50 (HuO-3N1) was 642 nM and the IC50 (GMS-10) was over 4000 nM. For the same compound, the IC50 (CAL-51) was over 4000 nM, the IC50 (NCI-H2030) was 2240 nM and the IC50 (LoVo) was 778 nM. The IC50 (A2058) was over 4000 nM, the IC50 (SAOS-2) was 1330 nM and the IC50 (ACHN) was over 4000 nM. The IC50 (HOP-92) was 2750 nM, the IC50 (HCC70) was 2870 nM and the IC50 (Ca-Ski) was over 4000 nM. It also gave an IC50 (NCI-H2405) of over 4000 nM, an IC50 (HT-29) of over 4000 nM and an IC50 (EFM-19) of 1620 nM. The IC50 (NCI-H441) was over 4000 nM, the IC50 (M14) was 3310 nM and the IC50 (HCC1954) was over 4000 nM.
